Measurements: patent US20220194936A1, “CRYSTALLINE FORMS OF N-(5-(5-((1R,2S)-2-FLUOROCYCLOPROPYL)-1,2,4-OXADIAZOL-3-YL)-2-METHYLPHENYL)IMIDAZO[1,2-A]PYRIDINE-3-CARBOXAMIDE” (Novartis AG, priority 2019, published 2022)
≈ marks a conversion by molar mass, not a printed value. Like-named read-outs stand apart in the source and are kept apart here.

Key:
Assay type in all cases: physicochemical
[1] = Evaluation of humidity at elevated temperature (solid state, open vial, 75% RH, 1 week; HPLC, XRPD, color); conditions: for Bulk (XRPD): 50° C. and 80° C.
Protocol: (§1) (5-(5-((1R,2S)-2-fluorocyclopropyl)-1,2,4-oxadiazol-3-yl)-2-methylphenyl)imidazo[1,2-a]pyridine-3-carboxamide Form A (10 mg) was placed in an open vial in a 75% relative humidity (RH) chamber at 50° C. for one week and also in an open vial in a 75% relative humidity (RH) chamber at 80° C. for one week. The initial purity of (5-(5-((1R,2S)-2-fluorocyclopropyl)-1,2,4-oxadiazol-3-yl)-2-methylphenyl)imidazo[1,2-a]pyridine-3-carboxamide Form A was 99.7%.
The samples were examined by XRPD for physical stability determination and by HPLC for chemical stability determination indicated by the presence of degradation products (DP).
The HPLC method used is […]
The color (CL) of the samples was evaluated by visual observation.
as §1, with “fumaric acid co-crystal” for “Form A”
The samples were examined by XRPD for physical stability determination and by HPLC for chemical stability determination indicated by the presence of degradation products (DP). The HPLC method used is […]

[2] = Evaluation of Xenon light exposure (HPLC, XRPD, color); conditions: Xenon light (approx. 1200 kLuxh, 25° C.)
Protocol: (§2) 5-(5-((1R,2S)-2-fluorocyclopropyl)-1,2,4-oxadiazol-3-yl)-2-methylphenyl)imidazo[1,2-a]pyridine-3-carboxamide Form A (10 mg) was placed in a container and exposed to approximately 1200 kLuxh of Xenon light at 25° C. The sample was examined by XRPD for physical stability determination and by HPLC for chemical stability determination indicated by the presence of degradation products (DP). The HPLC method used is described in Example 13-1. The color (CL) of the samples was evaluated by visual observation.
as §2, with “Fumaric acid co-crystal” for “Form A”, “19-1.” for “13-1.”

[3] = Crystal modification after equilibration in water for 2 weeks (XRPD); conditions: after 2 weeks in water
Protocol: 5-(5-((1R,2S)-2-fluorocyclopropyl)-1,2,4-oxadiazol-3-yl)-2-methylphenyl)imidazo[1,2-a]pyrindine-3-carboxamide Form A (10 mg) was placed in a vial containing water for 2 weeks and the sample was then examined by XRPD for physical stability determination. It was observed that after 2 weeks in water 5-(5-((1R,2S)-2-fluorocyclopropyl)-1,2,4-oxadiazol-3-yl)-2-methylphenyl)imidazo[1,2-a]pyridine-3-carboxamide Form A converted to 5-(5-((1R,2S)-2-fluorocyclopropyl)-1,2,4-oxadiazol-3-yl)-2-methylphenyl)imidazo[1,2-a]pyridine-3-carboxamide Form HB.
5-(5-((1R,2S)-2-fluorocyclopropyl)-1,2,4-oxadiazol-3-yl)-2-methylphenyl)imidazo[1,2-a]pyrindine-3-carboxamide Fumaric acid co-crystal (10 mg) was placed in a vial containing water for 2 weeks and the sample was then examined by XRPD for physical stability determination. No change in XRPD was observed after 2 weeks in water.

[4] = Water activity evaluation - crystal modification (water/ethanol, 2 weeks, XRPD)
Protocol: 5-(5-((1R,2S)-2-fluorocyclopropyl)-1,2,4-oxadiazol-3-yl)-2-methylphenyl)imidazo[1,2-a]pyrindine-3-carboxamide Form A (10 mg) was placed in a vials containing various ratios of water and ethanol and allowed to equilibrate for 2 weeks. The samples were then examined by XRPD for physical stability determination. The results are given below in Table 5 which show conversion to Form HA and Form HB occurs depending on the water activity. […]

[5] = Solubility in various media at 25° C. after 24 hours equilibration (HPLC); conditions: for solubility at 24 h: thermodynamic from solid, read-out: Conc. (solubility)
Protocol: (§3) 5-(5-((I R,2S)-2-fluorocyclopropyl)-1,2,4-oxadiazol-3-yl)-2-methylphenyl)imidazo[1,2-a]pyridine-3-carboxamide Form A (10 mg) in various media (1 mL) were mixed in a glass vial to make a slurry. Each sample was equilibrated at 25° C. for 24 hrs, and centrifuged at 13400 r.p.m. for 3 mins with 0.2 μm membrane to separate solids from liquids. The liquid was used to measure solubility by HPLC. Table 6 provides solubility data of 5-(5-((1R,2S)-2-fluorocyclopropyl)-1,2,4-oxadiazol-3-yl)-2-methylphenyl)imidazo[1,2-a]pyridine-3-carboxamide Form A at 25° C. after 24 hours equilibration and the final pH of the sample.
as §3, with “5-(5-((1R,2S)-2-fluorocyclopropyl)-1,2,4-oxadiazol-3-yl)-2-methylphenyl)imidazo[1,2-a]pyridine-3-carboxamide fumaric acid co-crystal” for “5-(5-((I R,2S)-2-fluorocyclopropyl)-1,2,4-oxadiazol-3-yl)-2-methylphenyl)imidazo[1,2-a]pyridine-3-carboxamide Form A”, “10” for “6”, “fumaric acid co-crystal” for “Form A”

[6] = Water activity 0.000, Water/ethanol (v/v) 0.000/1.000, 2 weeks
[7] = Water activity 0.099, Water/ethanol (v/v) 0.013/0.987, 2 weeks
[8] = FaSSIF-V2, pH 6.5, 25° C., LOQ = Limit of Quantitation +/− 0.5 μg/ml
[9] = Water, 25° C., LOQ = Limit of Quantitation +/− 0.5 μg/ml
[10] = pH 4.7, acetate buffer, 25° C., LOQ = Limit of Quantitation +/− 0.5 μg/ml
[11] = pH 6.8, phosphate buffer, 25° C.
[12] = pH 6.8, phosphate buffer, 25° C., LOQ = Limit of Quantitation +/− 0.5 μg/ml
[13] = pH 10.0, borate buffer, 25° C., LOQ = Limit of Quantitation +/− 0.5 μg/ml

| SMILES | CL (color) ([1]; 50° C.) | DP (%) degradation products, Bulk (HPLC) ([1]; 50° C.) [%] | Bulk (XRPD) [1] | CL (color) ([1]; 80° C.) | DP (%) degradation products, Bulk (HPLC) ([1]; 80° C.) [%] | Bulk (XRPD) [2] | CL (color) [2] | DP (%) degradation products, Bulk (HPLC) [2] [%] | Crystal modification by XRPD [3] | Modification (XRPD) [4, 6] | Modification (XRPD) [4, 7] | Final pH ([5]; FaSSIF-V2, pH 6.5, 25° C.) | Conc. (solubility) [5, 8] | Final pH ([5]; FeSSIF-V2, pH 5.8, 25° C.) | Conc. (solubility) ([5]; SGF pH 2.0, 25° C.) [µg/mL] | Final pH ([5]; SGF pH 2.0, 25° C.) | Final pH ([5]; Water, 25° C.) | Conc. (solubility) [5, 9] | Final pH ([5]; pH 1.0 (0.1N HCl), 25° C.) | Final pH ([5]; pH 2.0 (0.01N HCl), 25° C.) | further results |
| --- | --- | --- | --- | --- | --- | --- | --- | --- | --- | --- | --- | --- | --- | --- | --- | --- | --- | --- | --- | --- | --- |
| Cc1ccc(-c2noc([C@H]3C[C@@H]3F)n2)cc1NC(=O)c1cnc2ccccn12 [fumaric acid co-crystal, N-(5-(5-((1R,2S)-2-fluorocyclopropyl)-1,2,4-oxadiazol-3-yl)-2-methylphenyl)imidazo[1,2-a]pyridine-3-carboxamide fumaric acid co-crystal] | No change | 0.11 | Bulk (XRPD): No change | No change | 0.09 | Bulk (XRPD): No change | No change | 0.10 | No change | No change | No change | 4.66 | LOQ | 4.75 | 180 | 1.94 | 4.26 | LOQ | 0.95 | 1.98 | Modification (XRPD) ([4]; Water activity 0.205, Water/ethanol (v/v) 0.030/0.970, 2 weeks): No change; Modification (XRPD) ([4]; Water activity 0.298, Water/ethanol (v/v) 0.048/0.952, 2 weeks): No change; Modification (XRPD) ([4]; Water activity 0.398, Water/ethanol (v/v) 0.073/0.927, 2 weeks): No change; Modification (XRPD) ([4]; Water activity 0.502, Water/ethanol (v/v) 0.104/0.896, 2 weeks): No change; Modification (XRPD) ([4]; Water activity 0.605, Water/ethanol (v/v) 0.145/0.855, 2 weeks): No change; Modification (XRPD) ([4]; Water activity 0.700, Water/ethanol (v/v) 0.198/0.802, 2 weeks): No change; Modification (XRPD) ([4]; Water activity 0.802, Water/ethanol (v/v) 0.296/0.704, 2 weeks): No change; Modification (XRPD) ([4]; Water activity 0.900, Water/ethanol (v/v) 0.550/0.450, 2 weeks): No change; Modification (XRPD) ([4]; Water activity 1.000, Water/ethanol (v/v) 1.000/0.000, 2 weeks): No change; Conc. (solubility) ([5]; FeSSIF-V2, pH 5.8, 25° C.): 8 µg/mL; Conc. (solubility) ([5]; pH 1.0 (0.1N HCl), 25° C.): 410 µg/mL; Conc. (solubility) ([5]; pH 2.0 (0.01N HCl), 25° C.): 190 µg/mL; Final pH ([5]; pH 4.7, acetate buffer, 25° C.): 4.51; Conc. (solubility) [5, 10]: LOQ; Final pH [5, 11]: 5.79; Conc. (solubility) [5, 12]: LOQ; Final pH ([5]; pH 10.0, borate buffer, 25° C.): 8.76; Conc. (solubility) [5, 13]: LOQ |
| Cc1ccc(-c2noc([C@H]3C[C@@H]3F)n2)cc1NC(=O)c1cnc2ccccn12 [Form A, N-(5-(5-((1R,2S)-2-fluorocyclopropyl)-1,2,4-oxadiazol-3-yl)-2-methylphenyl)imidazo[1,2-a]pyridine-3-carboxamide] | No change | 0.06 | Bulk (XRPD): No change | No change | 0.06 | Bulk (XRPD): No change | No change | 0.06 | Form HB | No change | No change | 6.40 | LOQ | 5.63 | 640 | 2.10 | 7.91 | LOQ | 1.20 | 2.06 | solubility at 24 h ([5]; 0.01N HCl, 25 °C, pH 2, simulated gastric fluid, pH 2.0 (0.01N HCl), 25° C.): 210 µg/mL (≈ 556 µM); solubility at 24 h ([5]; 0.1N HCl, 25 °C, pH 1, simulated gastric fluid, pH 1.0 (0.1N HCl), 25° C.): 440 µg/mL (≈ 1170 µM); solubility at 24 h ([5]; FeSSIF-V2, 25 °C, pH 5.8, fessif, FeSSIF-V2, pH 5.8, 25° C.): 15 µg/mL (≈ 39.7 µM); Final pH ([5]; pH 4.7, acetate buffer, 25° C.): 4.78; Conc. (solubility) [5, 10]: LOQ; Final pH [5, 11]: 6.77; Conc. (solubility) [5, 12]: LOQ; Final pH ([5]; pH 10.0, borate buffer, 25° C.): 10.02; Conc. (solubility) [5, 13]: LOQ |
